From patent US6831080B2, “Cinnamide derivatives as KCNQ potassium channel modulators” (Bristol-Myers Squibb Company, priority 2001, dated 2004) come the findings set out here.

Counter-ions that a name gives are not always drawn.

The test system of assay [1] is chlordiazepoxide + amphetamine induced hyperactivity, Sprague Dawley rats. Briefly: Mania/bipolar model: chlordiazepoxide + d-amphetamine induced hyperactivity, locomotor activity. The class given is in vivo, rat.
Method: Subjects: Female Sprague Dawley rats (Hilltop Lab Animals, Scottdale, Pa.), weighing 150-200 g at the beginning of the experiment, were used in the experiment described in this example. Animals were individually housed in standard shoebox cages and maintained on a 12:12 h light-dark cycle (lights on at 0600). All animals were allowed food and water ad libitum throughout the experimental procedure. Prior to arrival to the testing facility, the rats were anesthetized with vaporized Isoflurane and catheters were surgically implanted into the jugular vein. The catheters were made of silastic medical grade tubing (15 cm long, 0.02″ internal diameter, 0.037″ external diameter), fastened with sutures to muscle near the jugular vein and at the nape of the neck, then sealed with smooth pieces of monofilament that were secured at the nape of the neck.
Lithium chloride (LiCl), chlordiazepoxide hydrochloride (CDP) and d-amphetamine sulfate (Amph) were obtained from Sigma Chemical Company (St. Louis, Mo.). LiCl was dissolved in a vehicle of isotonic saline and injected intraperitoneally (i.p.) at a dose of 2 mEq/kg. CDP and Amph were dissolved in a vehicle of sterile water (Phoenix Scientific, Inc., St. Joseph, Mo.) and injected subcutaneously (s.c.) at a dose of 12.5 mg/kg and 1.18 mg/kg, respectively. Combination treatment of CDP and Amph represented the s.c. injection of a 1:1 mixture of both compounds at the above referenced doses. Compound of Example 1 was dissolved in dimethylsulfoxide (DMSO) and brought to volume with propylene glycol (PG) such that the final vehicle represented a 4% DMSO/96% PG solution. […]
Thirty minutes after final s.c. dosing with either CDP+Amph, Amph alone or vehicle, rats were placed in locomotor activity testing apparatus. […] Data were analyzed using a priori planned analyses of variance where an effect was considered significant if p<0.05.
Assay [2] deals with cortical spreading depression (KCl application), Long-Evans rats. Put plainly: In vivo electrophysiology: number of cortical spreading depressions produced by KCl application. To be noted: 1 mg/kg, i.v., 15 min prior to KCl; rat. From the text: Male Long-Evans rats (300-450 g) were used in the present studies (Harlan). Rats were anesthetized with urethane anesthesia (1.2 g/kg i.p.) and placed in a stereotaxic frame. Under anesthesia a Silastic catheter was placed in the jugular vein of the rats. The skull was exposed using a scalpel. A small hole (approximately 2 mm by 3 mm) was drilled in to the skull rostral to the lambdoid suture using a microdrill and steel burr. The dura was disrupted and a drop of mineral oil was placed in this hole to prevent dehydration of the underlying cortex. Ultimately this hole was used for the application of crystalline KCl (described below).
Two additional holes were place in the skull unilaterally at 4 and 8 mm rostral to the application hole. Silver wire electrodes were placed in these latter holes and secured to the skull using acrylic cement. A similar silver wire electrode was sutured to the nuchal muscle to serve as a reference electrode. Electrical DC recordings were obtained using a standard differential amplifier (Warner, DP-304) and commercially available data acquisition equipment (Cambridge Electronic Design, 1401 A-D converter and Spike2 software).
All experimental procedures were conducted while the rats were maintained under anesthesia. Rats were injected with test compound, valproic acid or vehicle (100% PEG-400) 15 min prior to the application of crystalline KCl to the application site described above. All injections were given via the jugular vein at a volume of ≦0.5 ml/kg. Only one treatment was tested per animal. The effect of valproic acid was also determined in this study due to the fact that Depakote™ (divalproex sodium) is one of only three drugs currently indicated for the prophylatic treatment of migraine headache. Valproic acid (30-200 mg/kg i.v.) was obtained from Sigma Chemical Company and was dissolved in a vehicle of isotonic saline.
KCl was applied to the application site for 10 min and was then removed using a saline soaked cotton swab. Mineral oil was subsequently reapplied to the application site. Typically, this application produced a long-lasting series of spreading depressions. The number of spreading depressions produced by this KCl application was the primary measure used to access the effectiveness of compounds in this assay.
Data were analyzed using analyses of variance followed by the Dunnett post-hoc test for pairwise comparisons, when appropriate. A difference was considered significant when p≦0.05.
The effect of representative compounds of Formula I on spreading depression is expressed as the percent reduction from vehicle control and is listed in Table 3.

The target of assay [3] is T1, mKCNQ2 channels (Mus musculus, UniProt Q9Z351).
T1 construct: expressed in transfected cells
Put plainly: Whole-cell patch-clamp, HEK 293 stable cell line expressing mKCNQ2 channels. It counts as cell-based. The note with it: HEK 293 mKCNQ2, Hill fit. As for the experimental part:
Whole-cell patch-clamp recordings were made from an HEK 293 stable cell line expressing mKCNQ2 channels, maintained in culture for 1-2 days. Patch pipettes had initial resistances of 2.5-4 MΩ. Currents were recorded with an EPC-9 amplifier (HEKA, Lambrecht, Germany) controlled with software (Pulse, HEKA) run on a standard lab PC. Series resistance compensation was used during current recording, and set at 80%. The series resistance (R) and cell capacitance (C) were determined electronically by subtracting the capacitive currents at the onset and offset of a 5 mV voltage step. The cancellation of whole-cell capacitance transients was virtually complete in all cells. Analog current signals were low-pass filtered at 2.9 kHz using a four-pole Bessel filter −3 dB) and stored on a local network server computer at a sampling rate of […]. All recordings were performed at room temperature (20-22° C.). The pipette solution contained (mM): KCl, 150; CaCl2, 2.5; EGTA, 5; MgCl2, 1; HEPES, 10; pH to 7.3 with KOH, and Osmolality of 290-300 mOsm. The extracellular solution contained (mM): NaCl, 140; KCl, 2.5; CaCl2, 2.5; MgCl2, 1; glucose, 10; HEPES, 10; pH to 7.3 with NaOH, and Osmolality of 305-310 mOsm
Concentration response data were generated by measuring the difference in the steady-state amplitude of current in the presence of compound at the end of a 600 ms voltage-clamp step from a holding potential of −80 mV. The concentration-response data were fitted with Hill-type equations: […]
where I is the steady-state current at a given concentration of agonist [A]; and Imax, EC50 and nH are parameters estimated from the curve fit. In some cases the concentration-response data were fitted with equations consisting of the sum of two Hill-type components. Current-voltage (I/V) relationships for agonist-evoked currents were obtained by performing 600 ms voltage steps (−110 mV to +40 mV) in the absence and presence of agonist.
In general terms: The patch-clamp technique gives a direct electrical read-out from membranes.

For assay [4], the system named is nerve injury-induced tactile allodynia (L5/L6 ligation), Sprague Dawley rats. Briefly: Chung model of neuropathic pain (Chung surgery and von Frey test). The note with it: i.v., von Frey thresholds over 90 min. It counts as in vivo, rat. As for the experimental part: To test agents for activity against peripheral mononeuropathy nerve injury-induced tactile allodynia, male Sprague Dawley rats (wt. 120-160 g) were surgically prepared with unilateral tight ligation of spinal nerves L5 and L6 following the method of Kim and Chung (Kim S. H., Chung J. M. (1992) Pain, September;50(3):355-63). After 3-4 weeks recovery, paw withdrawal to light touch was assessed as described by Chaplan et al. (Chaplan S. R., et al., (1994) J. Neurosci Methods, July;53(1):55-63). In brief, rats are placed in a plastic cage with a wire mesh bottom and allowed to acclimate for 15-30 minutes, until cage exploration and grooming stops. The plantar surface of each hind paw is touched with a series of von Frey hairs with varying stiffness requiring a known force to buckle to determine the nociceptive threshold. Adult male Sprague Dawley rats (avg. wt. 340 g) were tested in the present study. After acclimation, baseline von Frey thresholds were assessed for the injured hindpaw at −15 min. All test compounds were delivered at 0 min by the intravenous (i.v.) route in a volume of 0.5-2 ml/kg. The vehicle for test compounds was 100% PEG-400. For gabapentin the vehicle was deionized H2O. Animals were tested in one of the following 4 treatment conditions: (a) PEG400, (b) gabapentin (Neurontin) 100 mg/kg, (c) test compounds 3 mg/kg and (d) test compounds 10 mg/kg. Following drug administration, von Frey thresholds are measured at 15, 30, 60 and 90 min. Data were analyzed by a 2-way repeated measures analysis of variance followed by Dunnett's test (p<0.05). Experimenters were kept blind to the treatment condition of rats they tested.
Reversal of neuropathic pain behavior may be expressed as a percentage (0-100%) of the maximum possible effect, over and above the vehicle effects. Specifically, drug effects can be described in terms Δ% MPE according to the following equation: [formula]
AUCdrug=area under the curve for von Frey thresholds of the drug-treated group;
AUCvehicle=area under the curve for von Frey thresholds in the vehicle group;
Time=duration of post-drug testing period (90 min); and
Max=maximum von Frey threshold (15 g).
For example, a compound which immediately reversed neuropathic pain behavior to normal levels, such that animals only responded to the highest von Frey filament (15 g), and maintained normal levels through out the post-drug testing period (90 min) would be calculated as Δ% MPE=100%.

The test system of assay [5] is streptozoticin-induced tactile allodynia, Sprague Dawley rats. Put plainly: Diabetic model of neuropathic pain (streptozoticin and von Frey test). The class given is in vivo, rat. The note with it: 10 mg/kg, i.v.; von Frey thresholds over 90 min; STZ diabetic model. As for the experimental part:
To test agents for activity against systemic polyneuropathy nerve injury-induced tactile allodynia, animals were treated with streptozoticin (STZ) to create a diabetic condition by selective cytotoxic action upon pancreatic β-islet cells that produce insulin following the method of Courteix, et al. (Courteix C., et al., (1993) Pain, April;53(1):81-8). In brief, male Sprague Dawley rats (wt. 200-275 g) received an injection of STZ (75 mg/kg, i.p.) and diabetes was confirmed three weeks after STZ injection by measurement of tail vein blood glucose levels. After 3-4 weeks, paw withdrawal to light touch was assessed as described by Chaplan et al. (Chaplan S. R., et al., (1994) J Neurosci Methods, July;53(1):55-63). In brief, rats are placed in a plastic cage with a wire mesh bottom and allowed to acclimate for 15-30 minutes, until cage exploration and grooming stops. The plantar surface of each hind paw is touched with a series of von Frey hairs with varying stiffness requiring a known force to buckle to determine the nociceptive threshold. Adult male Sprague Dawley rats (avg. wt. 300 g) were tested in the present study. After acclimation, baseline von Frey thresholds were assessed for the injured hindpaw at -15 min. All test compounds were delivered at 0 min by the intravenous (i.v.) route in a volume of 0.5-2 ml/kg. […] Animals were tested in one of the following 4 treatment conditions: […] Following drug administration, von Frey thresholds are measured at 15, 30, 60 and 90 min. Data were analyzed by a 2-way repeated measures analysis of variance followed by Dunnett's test (p<0.05). Experimenters were kept blind to the treatment condition of rats they tested. […] Specifically, drug effects can be described in terms Δ% MPE according to the following equation: {[…] under the curve for von Frey thresholds of the drug-treated group; AUCvehicle=area under the curve for von Frey thresholds in the vehicle group; Time=duration of post-drug testing period (90 min); and Max=maximum von Frey threshold (15 g).

T1 sequence (Q9Z351 whole entry): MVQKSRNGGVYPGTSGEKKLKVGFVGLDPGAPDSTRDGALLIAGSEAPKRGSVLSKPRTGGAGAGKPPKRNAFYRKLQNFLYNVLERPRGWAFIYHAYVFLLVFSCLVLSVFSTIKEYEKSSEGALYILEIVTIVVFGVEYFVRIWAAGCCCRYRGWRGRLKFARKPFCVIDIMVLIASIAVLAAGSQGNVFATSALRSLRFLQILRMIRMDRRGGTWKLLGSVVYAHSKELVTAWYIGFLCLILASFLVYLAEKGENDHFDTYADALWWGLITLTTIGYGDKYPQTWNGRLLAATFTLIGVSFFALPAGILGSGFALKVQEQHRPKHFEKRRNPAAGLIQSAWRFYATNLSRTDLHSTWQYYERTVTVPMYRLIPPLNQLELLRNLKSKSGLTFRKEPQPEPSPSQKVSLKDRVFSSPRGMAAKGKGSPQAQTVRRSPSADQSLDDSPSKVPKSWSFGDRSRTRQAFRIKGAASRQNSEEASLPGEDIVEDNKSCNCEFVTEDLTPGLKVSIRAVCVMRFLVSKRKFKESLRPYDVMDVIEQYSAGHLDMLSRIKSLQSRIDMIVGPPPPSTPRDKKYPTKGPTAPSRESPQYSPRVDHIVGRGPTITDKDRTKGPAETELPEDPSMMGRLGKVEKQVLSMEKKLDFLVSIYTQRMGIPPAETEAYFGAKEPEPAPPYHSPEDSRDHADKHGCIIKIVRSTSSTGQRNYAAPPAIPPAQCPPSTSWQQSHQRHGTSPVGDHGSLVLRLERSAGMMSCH

With `C[C@H](NC(=O)/C=C/c1ccc(F)cc1)c1ccc2ccccc2c1` [Compound of Example 1], the “Horizontal Activity Counts” value in assay [1] (5 mg/kg i.v. 45 minutes pre-test, then chlordiazepoxide + d-amphetamine, first 10 minutes of testing) is 7,859.2 + 661.21 counts. Also, in assay [1] (5 mg/kg i.v. 45 minutes pre-test, F(1,16)=10.4, p=0.005), the “Effect on augmentation of locomotor scores produced by the combination treatment” value was “significantly prevented”.
A word on the EC50: it is the concentration that produces a half-maximal response. A low value points to greater potency. Take `C[C@H](NC(=O)/C=C/c1cc(F)ccc1F)c1cccc(N2CCOCC2)c1` [Example 90, (S)-3-(2,5-Difluoro-phen-yl)-N-[1-(3-morpho-lin-4-yl-phenyl)-eth-yl]-acrylamide]: in assay [2], the “% Reduction (number of spreading depressions, from vehicle control)” value was 37 (1 mg/kg, i.v.) %. Also, a half-maximal effect in assay [3] (@ −40 mV) (EC50) was put at 1.2 µM. The Emax in assay [3] (HEK293, read-out: Imax (%)) worked out at 523%. The “AUC (Δ% MPE)” value in assay [4] (3 mg/kg) was 13 (3 mg/kg, i.v.) Δ% MPE; in assay [5] it was 56 (10 mg/kg, i.v.) Δ% MPE.
`NCC1(CC(=O)O)CCCCC1` [Gabapentin, gabapentin, reference compound]: the “AUC (Δ% MPE)” value in assay [4] (100 mg/kg) is on record as 50 (100 mg/kg, i.v.) Δ% MPE.
Consider `C[C@H](N)Cc1ccccc1` [d-amphetamine, d-amphetamine sulfate, reference compound], for which the “Horizontal Activity Counts” value in assay [1] (rat, in vivo) is 8,772.3 + 426.02 counts.
In the case of “(S)-N-[1-(3-(2,6-di- methyl-Morpholin)-4-yl-phen- yl)-ethyl]-3-phen- yl-acrylamide [Example 84]”, in assay [2], the “% Reduction (number of spreading depressions, from vehicle control)” value is given as 37 (1 mg/kg, i.v.) %.
